In patent publication US8956868B2, “Induced pluripotent stem cells produced with a connexin inhibitor and a TGF-β signaling inhibitor” (LSIP, LLC, priority 2010, dated 2015):

System: cardiomyocytes derived from neonatal mouse ventricles
Test: Reprogramming of cardiomyocytes into iPS cells (selective culture in mouse ES medium)
Type: cell-based
Conditions: ES medium containing both 10 μM SB-431542 and 100 nM siRNA Cx43 (combination); after about two weeks; cardiomyocytes seeded at 2×10^5 cells
Description: Two-day-old neonatal C57BL/6 or C57BL/6-Tg (CAG-EGFP) mouse hearts including ventricles were minced into approximately 2-mm cubes with dissecting scissors by a conventional method. They were treated with 0.2% collagenase (type II; Worthington Biochemical Corp. U.S.; dissolved in PBS) to dissociate cardiomyocytes. The dissociated cardiomyocytes were centrifuged, and incubated for 45 minutes in DMEM containing 10% FBS at 37° C. with 5% CO2. After the incubation, the supernatant was further incubated under the same conditions. This process was repeated four times. Thus, fibroblasts were removed, and the cardiomyocytes were isolated,
The cardiomyocytes were seeded at 2×10^5 cells in a 6-cm dish, and cultured in the above DMEM medium. After culturing for 1 week, the medium used for culturing the cardiomyocytes was switched from the above DMEM medium to mouse ES media containing 15% FBS and also containing either a TGF-β receptor inhibitor SB-431542 (10 μM; Tocris, USA), siRNA Cx43 (100 nM), or both compounds, to select the reprogrammed cells. […]

Row | Compound | iPS cell colonies obtained
1 | NC(=O)c1ccc(-c2nc(-c3ccc4c(c3)OCO4)c(-c3ccccn3)[nH]2)cc1 [SB-431542] | Two
2 | siRNA Cx43: mouse Cx43 siRNA; sense 5′-CAAUUCCUCCUGCCGCAATT-3′, antisense 5′-UUGCGGCAGGAGGAAUUGTT-3′ (sense CAAUUCCUCCUGCCGCAATT; antisense UUGCGGCAGGAGGAAUUGTT; chemistry not given here) | Two
